Measurements: patent US20090054312A1, “SMIPs: Small molecule inhibitors of p27 depletion in cancers and other proliferative diseases” (priority 2007, published 2009)
Structures can show the parent of a compound that is named as a salt.

Test system: p27 levels in LNCaP-S14 cells
Assay: p27 immunofluorescence screening assay in LNCaP-S14 cells; also: test concentration or dose not given here
Conditions: cell line not given; for % positive: p27-positive cells; for Z score: Table 1, standard deviations from plate mean
[1] = Table 1, compounds showing SMIP activity in the secondary screen

SMILES	% positive [1] [%]	Z score	% positive ([…]) [%]
O=C(CSC1=NNC(c2ccccn2)S1)c1cccc(F)c1 (centres unmarked) [1-(3-fluorophenyl)-2-[(5-pyridin-2-yl-4,5-dihydro-1,3,4-thiadiazol-2-yl)sulfanyl]ethanone]	25.37	15.1024	–
O=c1c(C(F)(F)F)cccn1CCc1nc(-c2ccccc2)cs1 [1-[2-(4-phenyl-1,3-thiazol-2-yl)ethyl]-3-(trifluoromethyl)pyridin-2(1H)-one]	10.24	4.1344	–
Cc1cccn2c(=O)c3c(nc12)CCN(C(=O)c1ccc(C(C)(C)C)cc1)C3 [2-(4-tert-butylbenzoyl)-6-methyl-1,2,3,4-tetrahydro-11H-dipyrido-[1,2-a:4′,3′-d]pyrimidin-11-one]	19.38	10.7588	–
CS(=O)(=O)c1ccc(/C=C/C(=O)Nc2cccc(C(F)(F)F)c2)cc1 [3-[4-(methylsulfonyl)phenyl]-N-[3-trifluoromethyl]phenyl]-(2E)-propenamide]	41.56	26.8318	–
O=C1C(Cl)=C(N2CCC(C(=O)N3CCOCC3)CC2)C(=O)c2ccccc21 [3-chloro-2-[4-(morpholine-4-carbonyl)-1-piperidyl]naphthalene-1,4-dione]	12.42	5.7130	–
COc1cc(OC)c(CN2CC[C@H](NC(=O)c3ccc(-n4nc(C(C)(C)C)cc4C(C)(C)C)cc3)C2)c(OC)c1 [4-(3,5-di-tert-butyl-1H-pyrazol-1-yl)-N-[(3S)-1-(2,4,6-trimethoxybenzyl)pyrrolidin-3-yl]benzamide]	14.27	7.0595	–
CC1CN(C(=O)c2cc(-c3ccc(Cl)cc3)cs2)CC(C)O1 (centres unmarked) [4-[[(4-(4-chlorophenyl)thiophen-2-yl]carbonyl]-2,6-dimethylmorpholine]	23.93	14.0559	–
Nc1ncn([C@@H]2O[C@H](CO)[C@@H](O)[C@H]2O)c(=O)n1 [5-Azacytidine, reference compound]	10.87	4.5963	–
CCCCCCSc1nnc(N)s1 [5-hexylsulfanyl-1,3,4-thiadiazol-2-amine]	38.52	24.6282	–
Cc1[nH]cnc1-c1ccc(C(F)(F)F)cc1 [5-methyl-4-(4-(trifluoromethyl)phenyl)-(1H)-imidazole]	7.89	2.4371	–
CCOC(=O)c1cc2cccc(NC(=O)c3ccccc3OC(C)=O)c2[nH]1 [7-[(2-acetoxybenzoyl)amino]-1H-indole-2-carboxylic acid, ethyl ester]	51.60	34.1083	–
COc1ccc2[nH]cc(CCNC(=O)OC[C@@H]3C[C@H]4CC[C@@H]3C4)c2c1 [(1R,2R,4S)-bicyclo[2.2.1]hept-2-ylmethyl[2-(5-methoxy-1H-indol-3-yl)ethyl]carbamate]	19.39	10.7664	–
O=C(OCn1ncc(Cl)c(Cl)c1=O)c1ccc(C(F)(F)F)cc1 [(4,5-dichloro-6-oxo-pyridazin-1-yl)methyl-4-(trifluoromethyl)benzoate]	33.92	21.2964	–
O=C(OCn1ncc(Cl)c(Cl)c1=O)c1cccc(C(F)(F)F)c1 [(4,5-dichloro-6-oxopyridazin-1(6H)-yl)methyl-3-(trifluoromethyl)benzoate]	8.67	3.0023	–
CC[C@@]1(O)C[C@H](O[C@H]2C[C@H](N(C)C)[C@H](O[C@H]3C[C@H](O)[C@H](O[C@H]4CCC(=O)[C@H](C)O4)[C@H](C)O3)[C@H](C)O2)c2c(cc3c(c2O)C(=O)c2c(O)cccc2C3=O)[C@H]1C(=O)OC [Aclarubicin, reference compound]	–	4.5990	10.89
CCCCC(CC)CNC(=N)NC(=N)NCCCCCCNC(=N)NC(=N)NCC(CC)CCCC (centres unmarked) [Alexidine hydrochloride, reference compound]	17.48	9.38	–
COc1ccc(CCN2CCC(Nc3nc4ccccc4n3Cc3ccc(F)cc3)CC2)cc1 [Astemizole, reference compound]	7.37	2.0598	–
CC(C)COCC(CN(Cc1ccccc1)c1ccccc1)N1CCCC1 (centres unmarked) [Bepridil hydrochloride, reference compound]	8.54	2.9020	–
CC[C@@]1(O)C(=O)OCc2c1cc1n(c2=O)Cc2cc3ccccc3nc2-1 [Camptothecin, reference compound]	37.17	23.6514	–
[H]/N=C(\N/C(=N/[H])NCCCCCCNC(=N)NC(=N)Nc1ccc(Cl)cc1)Nc1ccc(Cl)cc1 [Chlorhexidine hydrochloride, reference compound]	25.83	15.4338	–
CN(C)CC/C=C1/c2ccccc2Sc2ccc(Cl)cc21 [Chlorprothixene hydrochloride, reference compound]	7.49	2.1477	–
Cc1cc(C2CCCCC2)n(O)c(=O)c1 [Ciclopirox olamine, reference compound]	28.54	17.3996	–

SMILES	% positive [1] [%]	Z score	% positive ([…]) [%]
Cc1cc(N)c2ccccc2[n+]1CCCCCCCCCC[n+]1c(C)cc(N)c2ccccc21 [Dequalinium chloride, reference compound]	30.24	18.6318	–
Oc1ccc(Cl)cc1Cc1cc(Cl)ccc1O [Dichlorophene, reference compound]	12.27	5.6065	–
C=C(CC)C(=O)c1ccc(OCC(=O)O)c(Cl)c1Cl [Ethacrynic acid, reference compound]	18.71	10.2724	–
COc1cc([C@@H]2c3cc4c(cc3[C@@H](O[C@@H]3O[C@@H]5CO[C@@H](C)O[C@H]5[C@H](O)[C@H]3O)[C@H]3COC(=O)[C@H]23)OCO4)cc(OC)c1O [Etoposide, reference compound]	39.92	25.6406	–
COC(=O)Nc1nc2ccc(Sc3ccccc3)cc2[nH]1 [Fenbendazole, reference compound]	4.46	−0.0511	–
Cc1cc2c(C(C)C)c(O)c(O)c(C=O)c2c(O)c1-c1c(C)cc2c(C(C)C)c(O)c(O)c(C=O)c2c1O [Gossypol, reference compound]	–	3.1932	8.94
CC[C@@H](C(=O)[C@@H](C)[C@@H](O)[C@H](C)CCc1ccc(C)c(O)c1C(=O)O)[C@H]1O[C@](CC)([C@H]2CC[C@](O)(CC)[C@H](C)O2)C[C@@H]1C [Lasalocid sodium, reference compound]	45.21	29.4743	–
O=c1cc(-c2ccc(O)c(O)c2)oc2cc(O)cc(O)c12 [Luteolin, reference compound]	19.15	10.5904	–
OC(c1cc(C(F)(F)F)nc2c(C(F)(F)F)cccc12)C1CCCCN1 (centres unmarked) [Mefloquine, reference compound]	17.66	9.5116	–
CC1=CC(=O)c2ccccc2C1=O [Menadione, reference compound]	38.33	24.4943	–
CSc1ccc2c(c1)C(N1CCN(C)CC1)Cc1ccccc1S2.O=C(O)/C=C\C(=O)O (centres unmarked) [Methiothepin maleate, reference compound]	9.08	3.2976	–
CN(C)c1ccc(O)c2c1C[C@H]1C[C@H]3[C@H](N(C)C)C(O)=C(C(N)=O)C(=O)[C@@]3(O)C(O)=C1C2=O [Minocycline hydrochloride, reference compound]	46.17	30.1696	–
CO[C@@]12[C@H](COC(N)=O)C3=C(C(=O)C(C)=C(N)C3=O)N1C[C@@H]1N[C@@H]12 [Mitomycin C, reference compound]	42.52	27.5299	–
CCC1(C2OC(C3OC(O)(CO)C(C)CC3C)CC2C)CCC(C2(C)CCC3(CC(O)C(C)C(C(C)C(OC)C(C)C(=O)[O-])O3)O2)O1.[Na+] (centres unmarked) [Monensin, sodium salt, sodium 4-[2-[5-ethyl-5-[5-[6-hydroxy-6-(hydroxymethyl)-3,5-dimethyl-oxan-2-yl]-3-methyl-oxolan-2-yl]oxolan-2-yl]-9-hydroxy-2,8-dimethyl-1,6-dioxaspiro[4.5]decan-7-yl)-3-methoxy-2-methyl-pentanoate, reference compound]	–	33.5974	50.90
CCN(CC)c1cc(-c2ccc(F)cc2)nc(-c2ccncc2)n1 [N,N-diethyl-6-(4-fluorophenyl)-2-pyridin-4-yl-pyrimidin-4-amine]	4.69	0.1118	–
CC(C)(C)c1cc2cc(NS(=O)(=O)c3ccc(Cl)cc3)ccc2[nH]1 [N-(2-tert-butyl-(1H)-indol-5-yl)-4-chlorobenzenesulfonamide]	37.42	23.8290	–
COc1ccc(S(=O)(=O)Nc2ccc3[nH]c(C(C)(C)C)cc3c2)cc1 [N-(2-tert-butyl-(1H)-indol-5-yl)-4-methoxybenzenesulfonamide]	29.15	17.8415	–
CCC(=O)N(Cc1cccc(Cl)c1)c1ccc2[nH]c(C(C)(C)C)cc2c1 [N-(2-tert-butyl-(1H)-indol-5-yl)-N-(3-chlorobenzyl)propanamide]	33.19	20.7674	–
Cc1cc(Br)ccc1NC(=O)CCCc1c[nH]c2ccccc12 [N-(4-bromo-2-methyl-phenyl)-4-(1H-indol-3-yl)butanamide]	30.52	18.8304	–
COc1ccc(S(=O)(=O)Nc2cccc3cc(C(=O)NCc4ccc(Cl)cc4)[nH]c23)cc1 [N-(4-chlorobenzyl)-7-[((4-methoxyphenyl)sulfonyl)amino]-(1H)-indole-2-carboxamide]	11.30	4.9019	–
COc1ccc(S(=O)(=O)N(Cc2ccc(Cl)cc2)Cc2ccc3cc[nH]c3c2)cc1 [N-(4-chlorobenzyl)-N-[((1H)-indol-6-yl)methyl]-4-methoxybenzenesulfonamide]	9.23	3.4074	–
